Assay results taken from EP2540163A1, “Nematocide N-cyclopropyl-sulfonylamide derivatives” (Bayer CropScience AG, priority 2011, dated 2013).

Experiments:
[1] = logP by HPLC on reversed-phase column (C 18), EEC Directive 79/831 Annex V.A8, Method A (0.1% aqueous phosphoric acid / acetonitrile, 43°C); format: physicochemical; settings: c18 reversed-phase hplc; LogP method A: HPLC reversed-phase C 18, 43°C, 0.1% aqueous phosphoric acid / acetonitrile
Protocol: (§1) Calibration was carried out using unbranched alkan-2-ones (having 3 to 16 carbon atoms) with known logP values (determination of the logP values by the retention times using linear interpolation between two successive alkanones).

[2] = logP by HPLC on reversed-phase column (C 18), EEC Directive 79/831 Annex V.A8, Method B (0.1% aqueous formic acid / acetonitrile, 40°C); format: physicochemical; settings: for chromatographic logP: c18 reversed-phase hplc
Protocol: as §1

[3] = LogP method B: HPLC reversed-phase C 18, 40°C, 0.1% aqueous formic acid / acetonitrile
[4] = LogP method B: HPLC, 40°C, 0.1% aqueous formic acid and acetonitrile, gradient 10% to 90% acetonitrile

| chromatographic logP [1] | chromatographic logP [2, 3] | SMILES | also measured |
| --- | --- | --- | --- |
| 2.77 |  | Cc1occc1C(=O)N(C1CC1)S(=O)(=O)c1ccccc1Cl [compound 4] |  |
| 4.07 |  | O=C(c1cc(Br)c(Br)s1)N(C1CC1)S(=O)(=O)c1ccccc1Cl [compound 15] |  |
| 3.46 |  | CCOC(=O)c1[nH]c(C)c(C(=O)N(C2CC2)S(=O)(=O)c2cccc(Cl)c2)c1C [compound 29] |  |
| 4.08 |  | CCOC(=O)c1[nH]c(C)c(C(=O)N(C2CC2)S(=O)(=O)c2ccc(Cl)c(C(F)(F)F)c2)c1C [compound 31] |  |
| 3.63 |  | CCOC(=O)c1[nH]c(C)c(C(=O)N(C2CC2)S(=O)(=O)c2ccc(Cl)cc2Cl)c1C [compound 32] |  |
| 3.2 |  | Cc1nc(C(F)(F)F)c(C(=O)N(C2CC2)S(=O)(=O)c2ccccc2Cl)s1 [compound 59] |  |
| 2.8 |  | Cc1ncc(C(=O)N(C2CC2)S(=O)(=O)c2cccc(Cl)c2)s1 [compound 60] |  |
| 3.46 |  | Cc1ncc(C(=O)N(C2CC2)S(=O)(=O)c2ccc(Cl)c(C(F)(F)F)c2)s1 [compound 62] |  |
| 2.91 |  | Cc1ncc(C(=O)N(C2CC2)S(=O)(=O)c2ccc(Cl)cc2Cl)s1 [compound 64] |  |
| 3.46 |  | Cc1nc(C(=O)N(C2CC2)S(=O)(=O)c2ccc(Cl)c(Cl)c2)cs1 [compound 70] |  |
| 3.03 |  | Cc1nc(C(=O)N(C2CC2)S(=O)(=O)c2ccc(Cl)cc2Cl)cs1 [compound 71] |  |
| 3.35 |  | Cc1nn(C)c(F)c1C(=O)N(C1CC1)S(=O)(=O)c1ccc(Cl)c(Cl)c1 [compound 178] |  |
| 2.34 |  | Cc1nn(C)c(F)c1C(=O)N(C1CC1)S(=O)(=O)c1ccccc1Cl [compound 180] |  |
| 2.94 |  | Cc1nn(C)c(F)c1C(=O)N(C1CC1)S(=O)(=O)c1ccc(Cl)cc1Cl [compound 186] |  |
| 2.97 |  | Cc1c(C(=O)N(C2CC2)S(=O)(=O)c2ccccc2Cl)cnn1-c1ccccc1 [compound 201] |  |
| 2.77 |  | Cc1nn(C)c(F)c1C(=O)N(C1CC1)S(=O)(=O)c1cccc(Cl)c1Cl [compound 210] |  |
| 1.94 |  | COc1nn(C)cc1C(=O)N(C1CC1)S(=O)(=O)c1ccccc1Cl [compound 211] |  |
| 3.35 |  | Cc1nn(C)c(F)c1C(=O)N(C1CC1)S(=O)(=O)c1ccc(Cl)c(Cl)c1Cl [compound 212] |  |
| 2.31 |  | Cn1cc(C(=O)N(C2CC2)S(=O)(=O)c2ccccc2Cl)c(I)n1 [compound 214] |  |
| 2.52 |  | Cc1nn(C)c(F)c1C(=O)N(C1CC1)S(=O)(=O)c1c(Cl)cccc1Cl [compound 218] |  |
| 3.94 |  | Cc1nn(C)c(Oc2cccc(Cl)c2)c1C(=O)N(C1CC1)S(=O)(=O)c1cccc(Cl)c1 [compound 399] |  |

| chromatographic logP [1] | chromatographic logP [2, 3] | SMILES | also measured |
| --- | --- | --- | --- |
| 4.46 |  | Cc1nn(C)c(Oc2cccc(Cl)c2)c1C(=O)N(C1CC1)S(=O)(=O)c1ccc(Cl)c(Cl)c1 [compound 405] |  |
|  | 4 | CCOc1nn(C)cc1C(=O)N(C1CC1)S(=O)(=O)c1ccc(Oc2ccc(F)c(Cl)c2)cc1Cl [compound 536] |  |
|  | 4.1 | CCOc1nn(C)cc1C(=O)N(C1CC1)S(=O)(=O)c1ccc(Oc2ccccc2Cl)c(Cl)c1 [compound 537] |  |
|  | 4.1 | CCOc1nn(C)cc1C(=O)N(C1CC1)S(=O)(=O)c1ccc(Oc2cccc(N(C)C)c2)c(Cl)c1 [compound 539] |  |
|  | 4.4 | CCOc1nn(C)cc1C(=O)N(C1CC1)S(=O)(=O)c1ccc(Oc2cccc(C(F)(F)F)c2)c(Cl)c1 [compound 549] |  |
|  | 4.4 | CCOc1nn(C)cc1C(=O)N(C1CC1)S(=O)(=O)c1ccc(Oc2ccc(C(F)(F)F)cc2)c(Cl)c1 [compound 550] |  |
|  | 4.5 | CCOc1nn(C)cc1C(=O)N(C1CC1)S(=O)(=O)c1ccc(Oc2ccc(Br)cc2)c(Cl)c1 [compound 552] |  |
|  | 4.7 | CCOc1nn(C)cc1C(=O)N(C1CC1)S(=O)(=O)c1ccc(Oc2ccc(Cl)cc2Cl)c(Cl)c1 [compound 555] |  |
|  | 4.8 | CCOc1nn(C)cc1C(=O)N(C1CC1)S(=O)(=O)c1ccc(Oc2ccc(Cl)c(C(F)(F)F)c2)c(Cl)c1 [compound 556] |  |
|  | 4.9 | CCOc1nn(C)cc1C(=O)N(C1CC1)S(=O)(=O)c1ccc(Oc2ccc(Br)c(Cl)c2)c(Cl)c1 [compound 558] |  |
|  | 5 | CCOc1nn(C)cc1C(=O)N(C1CC1)S(=O)(=O)c1ccc(Oc2cc(Cl)cc(Cl)c2)c(Cl)c1 [compound 559] |  |
|  | 3.7 | Cc1nn(C)c(C(=O)N(C2CC2)S(=O)(=O)c2cccc(Cl)c2Cl)c1Cl [compound 586] |  |
|  | 3 | Cc1nocc1C(=O)N(C1CC1)S(=O)(=O)c1cccc(Cl)c1Cl [compound 599] |  |
|  | 3.6 | Cc1nocc1C(=O)N(C1CC1)S(=O)(=O)c1ccc(Cl)c(Cl)c1Cl [compound 600] |  |
|  | 2.6 | Cc1oncc1C(=O)N(C1CC1)S(=O)(=O)c1ccc(Cl)c(Cl)c1Cl [compound 604] |  |
|  | 3.7 | O=C(c1cccnc1Cl)N(C1CC1)S(=O)(=O)c1ccc(Cl)c(Cl)c1Cl [compound 647] |  |
|  | 3.1 | Cc1cnn(C)c1C(=O)N(C1CC1)S(=O)(=O)c1cccc(Cl)c1Cl [compound 658] |  |
|  | 3.6 | Cc1cnn(C)c1C(=O)N(C1CC1)S(=O)(=O)c1ccc(Cl)c(Cl)c1Cl [compound 659] |  |
|  | 2.8 | Cn1ncc(I)c1C(=O)N(C1CC1)S(=O)(=O)c1cccc(Cl)c1Cl [compound 662] |  |
|  | 3.4 | Cn1ncc(I)c1C(=O)N(C1CC1)S(=O)(=O)c1ccc(Cl)c(Cl)c1Cl [compound 663] |  |

More lines, now with the values behind:

| SMILES | chromatographic logP [1] | chromatographic logP [2, 3] | also measured |
| --- | --- | --- | --- |
| O=C(c1cc(Br)c(Br)o1)N(C1CC1)S(=O)(=O)c1ccccc1Cl [compound 1] | 3.58 |  |  |
| Cc1occc1C(=O)N(C1CC1)S(=O)(=O)c1cccc(Cl)c1 [compound 3] | 3.27 |  |  |
| Cc1ccsc1C(=O)N(C1CC1)S(=O)(=O)c1cccc(Cl)c1 [compound 13] | 3.64 |  |  |
| Cc1ccsc1C(=O)N(C1CC1)S(=O)(=O)c1ccccc1Cl [compound 14] | 3.12 |  |  |
| Cc1ncc(C(=O)N(C2CC2)S(=O)(=O)c2ccc(Cl)c(Cl)c2)s1 [compound 63] | 3.33 |  |  |
| Cc1nn(C)c(F)c1C(=O)N(C1CC1)S(=O)(=O)c1cccc(Cl)c1 [compound 176] | 2.82 |  |  |
| Cn1cc(C(=O)N(C2CC2)S(=O)(=O)c2ccccc2Cl)c(C(F)(F)F)n1 [compound 200] | 2.71 |  |  |
| Cn1nc(C(F)(F)F)c(C(=O)N(C2CC2)S(=O)(=O)c2ccccc2Cl)c1Cl [compound 208] | 3.27 |  |  |
| Cc1nn(C)c(F)c1C(=O)N(C1CC1)S(=O)(=O)c1ccc(C(F)(F)F)cc1Cl [compound 213] | 3.19 |  |  |
| Cc1nn(C)c(C)c1C(=O)N(C1CC1)S(=O)(=O)c1ccccc1Cl [compound 215] | 2.17 |  |  |
| Cc1n[nH]c(C)c1C(=O)N(C1CC1)S(=O)(=O)c1ccc(C(F)(F)F)cc1 [compound 402] | 2.58 |  |  |
| Cc1nn(C)c(Oc2cccc(Cl)c2)c1C(=O)N(C1CC1)S(=O)(=O)c1ccc(Cl)c(C(F)(F)F)c1 [compound 404] | 4.56 |  |  |
| CCOc1nn(C)cc1C(=O)N(C1CC1)S(=O)(=O)c1ccc(Oc2ccc(Cl)cc2)cc1Cl [compound 535] |  | 4 |  |
| CCOc1nn(C)cc1C(=O)N(C1CC1)S(=O)(=O)c1ccc(Oc2ccc(C(F)(F)F)cc2)cc1Cl [compound 538] |  | 4.1 |  |
| CCOc1nn(C)cc1C(=O)N(C1CC1)S(=O)(=O)c1ccc(Oc2ccc(C)cc2)c(Cl)c1 [compound 542] |  | 4.3 |  |
| CCOc1nn(C)cc1C(=O)N(C1CC1)S(=O)(=O)c1ccc(Oc2ccc(Cl)cc2Cl)cc1Cl [compound 543] |  | 4.3 |  |

| SMILES | chromatographic logP [1] | chromatographic logP [2, 3] | also measured |
| --- | --- | --- | --- |
| CCOc1nn(C)cc1C(=O)N(C1CC1)S(=O)(=O)c1ccc(Oc2ccc(Br)c(Cl)c2)cc1Cl [compound 544] |  | 4.3 |  |
| CCOc1nn(C)cc1C(=O)N(C1CC1)S(=O)(=O)c1ccc(Oc2ccc(Cl)cc2)c(Cl)c1 [compound 545] |  | 4.3 |  |
| CCOc1nn(C)cc1C(=O)N(C1CC1)S(=O)(=O)c1ccc(Oc2cccc(Cl)c2)c(Cl)c1 [compound 546] |  | 4.3 |  |
| CCOc1nn(C)cc1C(=O)N(C1CC1)S(=O)(=O)c1ccc(Oc2cccc(C(F)(F)F)c2F)c(Cl)c1 [compound 547] |  | 4.3 |  |
| CCOc1nn(C)cc1C(=O)N(C1CC1)S(=O)(=O)c1ccc(Oc2ccc(F)c(Cl)c2)c(Cl)c1 [compound 548] |  | 4.4 |  |
| CCOc1nn(C)cc1C(=O)N(C1CC1)S(=O)(=O)c1ccc(Oc2cccc(Br)c2)c(Cl)c1 [compound 551] |  | 4.5 |  |
| CCOc1nn(C)cc1C(=O)N(C1CC1)S(=O)(=O)c1ccc(Oc2cccc(OC(F)(F)F)c2)c(Cl)c1 [compound 554] |  | 4.5 |  |
| CCCCCc1ccc(Oc2ccc(S(=O)(=O)N(C(=O)c3cn(C)nc3OCC)C3CC3)c(Cl)c2)cc1 [compound 560] |  | 5.6 |  |
| CCCCCc1ccc(Oc2ccc(S(=O)(=O)N(C(=O)c3cn(C)nc3OCC)C3CC3)c(Br)c2)cc1 [compound 561] |  |  | LogP [2, 3]: 5,8 |
| Cc1oncc1C(=O)N(C1CC1)S(=O)(=O)c1cccc(Cl)c1Cl [compound 603] |  | 2.2 |  |
| O=C(c1cccnc1Cl)N(C1CC1)S(=O)(=O)c1cccc(Cl)c1Cl [compound 645] |  | 3.2 |  |
| O=C(c1cccnc1Cl)N(C1CC1)S(=O)(=O)c1ccc(Oc2ccccc2)cc1 [compound 646] |  | 3.7 |  |
| O=C(c1cccnc1F)N(C1CC1)S(=O)(=O)c1cccc(Cl)c1Cl [compound 649] |  | 2.4 |  |
| COC(=O)C1(N(C(=O)c2c(C(F)(F)F)nn(C)c2F)S(=O)(=O)c2ccc(Cl)c(Cl)c2Cl)CC1 [compound 667] |  |  | chromatographic logP [2, 4]: 4.04 |
| Cc1nn(C)c(F)c1C(=O)N(C1(c2ccccc2)CC1)S(=O)(=O)c1cccc(Cl)c1Cl [compound 670] |  |  | chromatographic logP [2, 4]: 4.1 |
